# Experimental data: patent US10441681B2, “Materials and methods for nerve grafting” (University of Florida Research Foundation, Inc., priority 2001, dated 2019)
# “Also recorded” adds a separate entry of the source.
# Tests used:
# [1] = test system: embryonic chick DRG neurons; test: Cryoculture assay of nerve explant cultures (predegeneration); format: cell-based; settings: nerves cultured 2 days, 2% serum, in the presence of GM6001 (50 μM)
# MMP = test: In situ zymography of nerve explants (net gelatinolytic activity); format: biochemical, rat; settings: nerves cultured 2-day, 2% serum in the presence of GM6001
# Procedure: In the control condition, the MMP inhibitor EDTA (30 mM) was included in the reaction buffer. After incubation for 24 h at 37° C., the sections were rinsed with PBS and fixed with 4% paraformaldehyde in phosphate buffer. The sections were rinsed with water and mounted using Citifluor.
# Schwann cell cultures = test: Treatment of isolated Schwann cell cultures (toxicity); format: cell-based
structure (smiles),measurement,setting,value
CNC(=O)[C@H](Cc1c[nH]c2ccccc12)NC(=O)[C@@H](CC(=O)NO)CC(C)C [GM6001],increase in mean neurite length over uncultured control nerves,[1],14%
same,gelatinolytic activity in nerve explants,MMP,nearly undetectable; also recorded: markedly decreased
same,toxicity,Schwann cell cultures,very low toxicity
